Measured values reported in PubChem BioAssay AID1259411 (Chemical Carcinogenesis Research Information System (CCRIS), 2018).
Active and inactive are the calls of the source. The rule behind the calls is not given here.

Tested on: rodent carcinogenicity bioassays, tumor incidence
Test: CCRIS carcinogenicity studies
Summary of the method: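 Archive of carcinogenicity, mutagenicity, tumor promotion and tumor inhibition results drawn from journals, NCI reports and other sources, expert-reviewed; covers 1985-2011 and is no longer updated.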

For `[Cl][Cd][Cl]`, the carcinogen call (Species: HAMSTER, Strain/Sex: SYRIAN/FEMALE, Route: INHALATION, Dose: 0, 30 UG/M3 19 HR/D 5 D/WK FOR 65 WK FOR A TOTAL CADMIUM DOSE OF 0, 180 MG/M3 (STUDY DURATION: 76 WK), Dose: 0, 30 UG/M3 19 HR/D 5 D/WK FOR 65 WK FOR A TOTAL CADMIUM DOSE OF 0, 180 MG/M3 (STUDY DURATION: 76 WK)) was “inactive; negative”, the carcinogen call (Species: HAMSTER, Strain/Sex: SYRIAN/MALE, Route: INHALATION, Dose: 0, 30 UG/M3 19 HR/D 5 D/WK FOR 65 WK FOR A TOTAL CADMIUM DOSE OF 0, 180 MG/M3 (STUDY DURATION: 113 WK), Dose: 0, 30 UG/M3 19 HR/D 5 D/WK FOR 65 WK FOR A TOTAL CADMIUM DOSE OF 0, 180 MG/M3 (STUDY DURATION: 113 WK)) was “inactive; negative” and the carcinogen call (Species: MOUSE, Strain/Sex: BALB/MALE, Route: SUBCUTANEOUS, Dose: 0, 20 UMOL/KG 1/WK FOR 16 WK (STUDY DURATION: 104 WK), Tumor Site: Type of Lesion: HEMATOPOIETIC SYSTEM: TUMOR) was “active; positive”. For the same molecule, the carcinogen call (Species: MOUSE, Strain/Sex: BALB/MALE, Route: SUBCUTANEOUS, Dose: 0, 20 UMOL/KG ONCE (STUDY DURATION: 104 WK)) was “inactive; negative”, the carcinogen call (Species: MOUSE, Strain/Sex: CD-1/MALE, Route: SUBCUTANEOUS, Dose: 0, 0.03 MMOL/KG BW (5.5 MG/KG BW), SINGLE DOSE, Tumor Site: Type of Lesion: TESTES: INTERSTITIAL CELL TUMOR) was “active; positive” and the carcinogen call (Species: MOUSE, Strain/Sex: CD-1/MALE, Route: SUBCUTANEOUS, Dose: 5.5 MG/KG ONCE, Tumor Site: Type of Lesion: TESTES: INTERSTITIAL CELL TUMOR) was “active; positive”. For the same molecule, the carcinogen call (Species: MOUSE, Strain/Sex: DBA/MALE, Route: SUBCUTANEOUS, Dose: 0, 40 UMOL/KG 1/WK FOR 16 WK (STUDY DURATION: 104 WK), Tumor Site: Type of Lesion: HEMATOPOIETIC SYSTEM: LYMPHOMA) was “active; positive”, the carcinogen call (Species: MOUSE, Strain/Sex: DBA/MALE, Route: SUBCUTANEOUS, Dose: 0, 40 UMOL/KG ONCE (STUDY DURATION: 104 WK)) was “inactive; negative” and the carcinogen call (Species: MOUSE, Strain/Sex: NFS/MALE, Route: SUBCUTANEOUS, Dose: 0, 40 UMOL/KG 1/WK FOR 16 WK (STUDY DURATION: 104 WK), Tumor Site: Type of Lesion: INJECTION SITE: TUMOR, LIVER: HEPATOCELLULAR ADENOMA OR CARCINOMA) was “active; positive”. For the same molecule, the carcinogen call (Species: MOUSE, Strain/Sex: NFS/MALE, Route: SUBCUTANEOUS, Dose: 0, 40 UMOL/KG ONCE (STUDY DURATION: 104 WK), Tumor Site: Type of Lesion: LUNG: ADENOMA OR CARCINOMA) was “active; positive”, the carcinogen call (Species: MOUSE, Strain/Sex: SWISS/MALE, Route: SUBCUTANEOUS, Dose: 0, 40 UMOL/KG 1/WK FOR 16 WK BEGINNING AT 8 WK OF AGE (STUDY DURATION: 104 WK)) was “inactive; negative” and the carcinogen call (Species: MOUSE, Strain/Sex: SWISS/MALE, Route: SUBCUTANEOUS, Dose: 0, 40 UMOL/KG ONCE AT 8 WK OF AGE (STUDY DURATION: 104 WK), Tumor Site: Type of Lesion: ADRENAL GLAND: ADENOMA) was “active; positive”. For the same molecule, the carcinogen call (Species: RAT, Strain/Sex: CS/MALE, Route: INTRAPROSTATIC, Dose: 0, 0.04 ML OF 0.1 MOLAR SOLUTION (0.73 MG) ONCE (STUDY DURATION: 250 D), Tumor Site: Type of Lesion: PROSTATE: CARCINOMA) was “active; positive”, the carcinogen call (Species: RAT, Strain/Sex: F344/MALE, Route: SUBCUTANEOUS, Dose: 0, 3 UMOL/KG BW ONCE, THEN 30 UMOL/KG BW 1X/WK FOR 17 WK BEGINNING 1 WK POST INITIAL DOSE (STUDY DURATION: 18 WK), Tumor Site: Type of Lesion: INJECTION SITE SARCOMA) was “active; positive” and the carcinogen call (Species: RAT, Strain/Sex: F344/MALE, Route: SUBCUTANEOUS, Dose: 0, 10, 20, 30 UMOL/KG BW 1X/WK FOR 18 WK (STUDY DURATION: 18 WK), Dose: 0, 10, 20, 30 UMOL/KG BW 1X/WK FOR 18 WK (STUDY DURATION: 18 WK), Tumor Site: Type of Lesion: INJECTION SITE SARCOMA) was “active; positive”. The carcinogen call (Species: RAT, Strain/Sex: F344/MALE, Route: SUBCUTANEOUS, Dose: 0, 30 UMOL/KG IN DORSAL THORACIC MIDLINE AREA ONCE (STUDY DURATION: 90 WK), Tumor Site: Type of Lesion: INJECTION SITE: SARCOMA, FIBROSARCOMA) was “active; positive”, the carcinogen call (Species: RAT, Strain/Sex: WISTAR/FEMALE, Route: INHALATION, Dose: 0, 30 UG/M3 22 HR/D 7 D/WK FOR 18 MO (STUDY DURATION: 31 MO), Tumor Site: Type of Lesion: LUNG: ALVEOLAR/BRONCHIOLAR ADENOMA, ADENOCARCINOMA) was “active; positive” and the carcinogen call (Species: RAT, Strain/Sex: WISTAR/FEMALE, Route: INHALATION, Dose: 0, 30 UG/M3 22 HR/D 7 D/WK FOR 18 MO (STUDY DURATION: 31 MO), Tumor Site: Type of Lesion: LUNG: TUMOR) was “active; positive”.
